Assay results published in patent US20070065485A1, “Therapeutic delivery of carbon monoxide” (priority 2003, published 2007).
Like-named read-outs stand apart in the source and are kept apart here.

Columns and labels:
[1] = tested on: aortic rings pre-contracted with phenylephrine; assay: Isolated aortic ring preparation: vessel relaxation in rings pre-contracted with phenylephrine (3 μM); assay type: cell-based, male Lewis rats; conditions: for percentage of relaxation compared to control: after 10 min
Protocol: Transverse ring sections of thoracic aorta were isolated from male Lewis rats and suspended under a 2 g tension in an organ bath containing oxygenated Krebs-Henseleit buffer at 37° C. in a manner previously described^10. The relaxation response to CORM-A1 (40, 80 and 160 μM) was assessed in aortic rings pre-contracted with phenylephrine (3 μM). […] Experiments were also conducted by comparing the effect of CORM-A1 and CORM-3 on vessel relaxation over time.

deoxymyoglobin (Mb) [2] = assay: Detection of CO release: conversion of deoxymyoglobin (Mb) to carbonmonoxy myoglobin (MbCO); assay type: physicochemical
Protocol: The release of CO from CORM-A1 was assessed spectrophotometrically by measuring the conversion of deoxymyoglobin (Mb) to carbonmonoxy myoglobin (MbCO) by a method previously described^23. The amount of MbCO formed was quantified by measuring the absorbance at 540 nm (extinction coefficient=[…]) over time at 37° C. Myoglobin solutions (approximately 50 μmol/L final concentration) were prepared fresh by dissolving the protein in 0.04 M phosphate buffer (pH=7.4). Sodium dithionite (0.1%) was added to convert the oxidized myoglobin to its reduced form prior to each reading. Some experiments were also conducted using Mb at pH=5.5 or at room temperature (RT) in order to examine the kinetic of CO release from CORM-A1 under different chemical and physical conditions.
The amount of MbCO formed after addition of CORM-A1 to the Mb solution can be quantified by measuring the absorbance at 540 nm knowing the extinction coefficient for MbCO (ε=[…]). CORM-A1 at three different concentrations was added to a solution containing Mb at room temperature and the formed MbCO was calculated over time.

[3] = tested on: mean arterial pressure (MAP); assay: Effect of CORM-A1 and YC-1 on mean arterial pressure (MAP) in anaesthetised rats; assay type: in vivo, Lewis rats
Protocol: Lewis rats (280-350 g) were anaesthetised by intramuscular injection of 1 ml/kg Hypnorm. Specially designed femoral artery and venous catheters were then surgically implanted and mean arterial pressure (MAP) monitored continuously using a polygraph recorder in a manner previously described. The effect of CORM-A1 on mean arterial pressure (MAP) over time was assessed following an intravenous (i.v.) injection of 50 μmol kg^−1. Similar experiments were conducted by administering YC-1 (1.2 μmol kg^−1, i.v.) to animals 5 min prior to the bolus addition of CORM-A1. Control experiments using YC-1 alone were also performed.
Femoral artery and venous catheters were surgically implanted into anesthetized Lewis rats and blood pressure continuously monitored as previously described by us. The effect of CORM-A1 and YC-1 on mean arterial pressure (MAP) in vivo is represented in FIG. 11. The compounds were injected intravenously as a bolus at a final concentration of 50 μmoles/kg for CORM-A1 and 1.2 μmol kg^−1 for YC-1. When the two compounds were given in combination, YC-1 was administered 10 min prior to CORM-A1 injection. As shown, CORM-A1 produced a gradual and sustained decrease in MAP over time; for instance, 60 min after CORM-A1 injection MAP decreased by 6.3±1.5 mmHg from the initial baseline value. Injection with YC-1 alone also produced an effect on blood pressure; however, the decrease in MAP was only transient, reaching a maximum of 5.5±1.0 mmHg after 10 min and returning to basal levels 50 min after injection. […] The data are represented as the mean±s.e.m. of 5 independent experiments for each group. *P<0.05 vs. baseline (−10 min); ^⇑P<0.05 vs. CORM-A1 alone or YC-1 alone.

[4] = distilled water at basic pH; cited from earlier work
[5] = tested on: aortic rings pre-contracted with phenylephrine; assay: Isolated aortic ring preparation: relaxation response to CORM-A1 in presence or absence of YC-1, phenylephrine 1 μmol/L; assay type: cell-based, male Lewis rats
Protocol: Transverse ring sections of thoracic aorta were isolated from male Lewis rats and suspended under a 2 g tension in an organ bath containing oxygenated Krebs-Henseleit buffer at 37° C. in a manner previously described. […] YC-1 was added to the isolated rings 30 min prior to contraction with phenylephrine.

deoxymyoglobin (Mb) [6] = conditions: cited from earlier work

## [BH4-].[Na+] [NaBH4, Sodium borohydride, reference compound]
[1]; 80 μM
  vasorelaxation (in words): totally ineffective

## [BH3-]C(=O)[O-].[Na+].[Na+] [CORM-A1, Disodium boranocarbonate]
Deoxymyoglobin (Mb) [2]; 15.6 μM CORM-A1, room temperature
  calculated Ymax of MbCO formed: 16.7±1.2
Deoxymyoglobin (Mb) [2]; 31.1 μM CORM-A1, room temperature
  calculated Ymax of MbCO formed: 33.1±1.4
Deoxymyoglobin (Mb) [2]; 46.7 μM CORM-A1, room temperature
  calculated Ymax of MbCO formed: 48.2±2.5
Deoxymyoglobin (Mb) [2]; 60 μM, pH=7.4, 37° C., MbCO spectrum after 210 min incubation
  conversion of Mb to MbCO: gradual formation of MbCO over time
Deoxymyoglobin (Mb) [2]; aqueous solution, room temperature, reaction to completion
  CO liberated per mole of compound: one mole of CO per mole of compound
Deoxymyoglobin (Mb) [2]; physiological pH
  release of CO at physiological pH: 18.4 min
[1]; 40 μM
  percentage of relaxation compared to control: 21.0±2.3%
[1]; 80 μM
  time after addition at which the stated relaxation was reached: 33 min
  vasorelaxation (in words): gradual and profound vasorelaxation
  percentage of relaxation compared to control: 40.2±3.4%
[1]; 80 μM, 33 min following addition
  maximal vasorelaxation: 96%
[1]; 160 μM
  percentage of relaxation compared to control: 74.9±1.8%
[3]; 50 μmoles/kg i.v. bolus, 60 min after injection
  decrease in MAP from initial baseline: 6.3±1.5 mmHg
[3]; CORM-A1 50 μmoles/kg i.v. in combination with YC-1 1.2 μmol kg^−1 given 10 min prior, after 10 min
  decrease in MAP: 16.1±5.6 mmHg
[4]
  stability in water: relatively stable
[5]; 1 μM CORM-A1, vessels pre-treated with YC-1
  relaxation: 35±9.8%
[5]; 10 μM CORM-A1, vessels pre-treated with YC-1
  relaxation: 51±3.3%
[5]; 20 μM after pre-treatment of vessels with YC-1 (1 μM)
  relaxation: 61±6.2%
[5]; 20 μM alone, after 20 min
  relaxation: 13±4.9%

## NCC(=O)O.[CH+]=O.[CH+]=O.[CH+]=O.[Cl][Ru] [CORM-3, Tricarbonylchloro(glycinato)ruthenium(II)]
[1]; 80 μM
  time after addition at which the stated relaxation was reached: 4 to 5 min
[1]; 80 μM, within 4-5 min
  relaxation: 75%
Deoxymyoglobin (Mb) [6]; added to a solution containing myoglobin (Mb), 1 mole CO per mole compound
  time in which CO is liberated to Mb: 1 to 2 min
Deoxymyoglobin (Mb) [6]; added to a solution containing myoglobin (Mb), within 1-2 min
  CO liberated per mole of compound: 1 mole of CO per mole of compound
Deoxymyoglobin (Mb) [6]; from recent works
  time of liberation of CO to Mb or in biological systems: approximately 5 min

## OCc1ccc(-c2nn(Cc3ccccc3)c3ccccc23)o1 [YC-1, 3-(5′-hydroxymethyl-2′-furyl)-1-benzyl-indazole, reference compound]
[3]; YC-1 alone 1.2 μmol kg^−1 i.v., after 10 min
  maximum decrease in MAP: 5.5±1.0 mmHg
[3]; YC-1 alone 1.2 μmol kg^−1 i.v., after injection
  time to return of MAP to basal levels: 50 min
[5]; YC-1 alone (1 μM), after 20 min
  relaxation: 2.8±1.1%
